{"source": "patent US8741897B2", "about": "“Glucocorticoid mimetics, methods of making them, pharmaceutical compositions and uses thereof” (Boehringer Ingelheim Pharmaceuticals Inc., priority 2003, dated 2014)", "key": {"[1]": {"tested_on": "Human osteosarcoma MG-63 cells", "experiment": "Inhibition of osteocalcin production from osteoblast cell line MG-63", "format": "cell-based", "settings": "Vitamin D 10 nM, 48 hours", "protocol": "7. Inhibition of Osteocalcin Production from Osteoblast Cell Line MG-63\nThe next day, wells are replaced with fresh media. Cells are treated with Vitamin D (Sigma, Cat. No. D1530) to a final concentration of 10 nM, and with the test compounds in concentrations of 10^−6 M to 10^−9 M, in a total volume of 200 μL per well. Samples are done in duplicates. […] Positive control wells receive Vitamin D only, without compounds, and represent maximum (100%) amount of osteocalcin production. Plates are incubated at 37° C. incubator for 48 hours and supernatants are harvested at the end of incubation. Amounts of osteocalcin in the supernatants are determined by the Glype osteocalcin ELISA kit (Zymed, Cat. No. 99-0054) according to manufacture's protocol. Inhibition of osteocalcin by test compounds is expressed in percentage relative to positive controls. IC50 values of the test compounds are derived by non-lineal curve fitting."}, "[2]": {"molecular_target": "T1, human glucocorticoid receptor (GR) complex (Homo sapiens, UniProt P04150)", "T1 construct": "made in house; host or cells: insect expression system (baculovirus lysate)", "T1 sequence (P04150 1-777)": "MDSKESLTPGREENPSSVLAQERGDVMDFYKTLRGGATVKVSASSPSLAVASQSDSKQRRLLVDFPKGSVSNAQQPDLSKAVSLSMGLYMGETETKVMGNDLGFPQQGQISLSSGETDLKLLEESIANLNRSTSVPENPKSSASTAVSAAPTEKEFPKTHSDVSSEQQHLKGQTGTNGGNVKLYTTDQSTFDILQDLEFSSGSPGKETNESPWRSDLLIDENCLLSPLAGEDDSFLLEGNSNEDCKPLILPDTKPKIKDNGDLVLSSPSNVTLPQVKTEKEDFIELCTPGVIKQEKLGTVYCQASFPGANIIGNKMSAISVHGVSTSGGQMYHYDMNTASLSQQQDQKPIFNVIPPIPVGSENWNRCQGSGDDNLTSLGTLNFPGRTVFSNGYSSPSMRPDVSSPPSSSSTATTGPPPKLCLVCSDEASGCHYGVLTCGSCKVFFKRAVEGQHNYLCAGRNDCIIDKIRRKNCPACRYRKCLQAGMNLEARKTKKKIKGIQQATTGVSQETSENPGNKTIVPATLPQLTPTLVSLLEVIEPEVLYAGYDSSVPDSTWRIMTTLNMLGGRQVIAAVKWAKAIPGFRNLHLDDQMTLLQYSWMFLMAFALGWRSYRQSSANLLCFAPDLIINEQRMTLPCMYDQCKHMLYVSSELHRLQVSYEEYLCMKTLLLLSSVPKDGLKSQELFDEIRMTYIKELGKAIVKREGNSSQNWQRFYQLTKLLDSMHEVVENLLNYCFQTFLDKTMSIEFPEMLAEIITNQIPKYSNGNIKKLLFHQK", "experiment": "Glucocorticoid receptor competitive binding assay (fluorescence polarization, TAMRA-labeled dexamethasone probe)", "settings": "compounds of Formula (IA)", "outline": "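Fluorescence-polarization competition against 15 nM TAMRA-dexamethasone (stock added to the mix) for human GR complex from baculovirus lysate diluted 1:170. Buffer: 10 mM TES, 50 mM KCl, 20 mM Na2MoO4, 1.5 mM EDTA, 0.04% CHAPS, 10% glycerol, 1 mM DTT, pH 7.4. IC50 from 4-parameter logistic fit.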"}, "[3]": {"tested_on": "glucocorticoid receptor function", "experiment": "one or more of the above assays (GR binding and glucocorticoid receptor cell assays: aromatase, IL-6, TAT, MMTV-Luc, IL-8, ICAM-Luc)", "format": "cell-based", "settings": "assay not specified per compound"}}, "data": [{"smiles": "CC(C)(CC(O)(Cc1cc2cc(C(=O)N3CCCC3)ccc2[nH]1)C(F)(F)F)c1cc(Br)cc2c1OCC2", "note": "(stereo not drawn) [{2-[4-(5-Bromo-2,3-dihydrobenzofuran-7-yl)-2-hydroxy-4-methyl-2-trifluoromethylpentyl]-1H-indol-5-yl}pyrrolidin-1-ylmethanone]", "values": [{"measurement": "inhibit the vitamin D stimulated production of osteocalcin", "setting": "[1]", "result": "inhibit"}, {"measurement": "activity in the GR binding assay", "setting": "[2]", "result": "potent activity"}, {"measurement": "activity as agonists of the glucocorticoid receptor function in one or more of the above assays", "setting": "[3]", "result": "potent agonists"}]}, {"smiles": "CC(C)(CC(O)(Cc1cc2cc(C(=O)NCC#N)ccc2[nH]1)C(F)(F)F)c1cc(Br)cc2c1OCC2", "note": "(stereo not drawn) [2-[4-(5-Bromo-2,3-dihydrobenzofuran-7-yl)-2-hydroxy-4-methyl-2-trifluoromethylpentyl]-1H-indole-5-carboxylic acid cyanomethylamide]", "values": [{"measurement": "inhibit the vitamin D stimulated production of osteocalcin", "setting": "[1]", "result": "inhibit"}, {"measurement": "activity in the GR binding assay", "setting": "[2]", "result": "potent activity"}, {"measurement": "activity as agonists of the glucocorticoid receptor function in one or more of the above assays", "setting": "[3]", "result": "potent agonists"}]}, {"smiles": "COc1ccc(F)cc1C(C)(C)CC(O)(Cc1cc2c(C)nc(C#N)cc2[nH]1)C(F)(F)F", "note": "(stereo not drawn) [2-[4-(5-Fluoro-2-methoxyphenyl)-2-hydroxy-4-methyl-2-trifluoromethylpentyl]-4-methyl-1H-pyrrolo[3,2-c]pyridine-6-carbonitrile]", "values": [{"measurement": "inhibit the vitamin D stimulated production of osteocalcin", "setting": "[1]", "result": "inhibit"}, {"measurement": "activity in the GR binding assay", "setting": "[2]", "result": "potent activity"}, {"measurement": "activity as agonists of the glucocorticoid receptor function in one or more of the above assays", "setting": "[3]", "result": "potent agonists"}]}, {"smiles": "CC(C)(CC(O)(Cc1cc2cc(N3CCCCC3)ncc2[nH]1)C(F)(F)F)c1cc(S(C)(=O)=O)cc2c1OCC2", "note": "(stereo not drawn) [1,1,1-Trifluoro-4-(5-methanesulfonyl-2,3-dihydrobenzofuran-7-yl)-4-methyl-2-(5-piperidin-1-yl-1H-pyrrolo[2,3-c]pyridin-2-ylmethyl)pentan-2-ol]", "values": [{"measurement": "inhibit the vitamin D stimulated production of osteocalcin", "setting": "[1]", "result": "inhibit"}, {"measurement": "activity as agonists of the glucocorticoid receptor function in one or more of the above assays", "setting": "[3]", "result": "potent agonists"}]}, {"smiles": "Cc1cc(C#N)cc2[nH]c(CC(O)(CC(C)(C)c3cc(S(C)(=O)=O)cc4c3OCC4)C(F)(F)F)cc12", "note": "(stereo not drawn) [2-[2-Hydroxy-4-(5-methanesulfonyl-2,3-dihydrobenzofuran-7-yl)-4-methyl-2-trifluoromethylpentyl]-4-methyl-1H-indole-6-carbonitrile]", "values": [{"measurement": "inhibit the vitamin D stimulated production of osteocalcin", "setting": "[1]", "result": "inhibit"}, {"measurement": "activity in the GR binding assay", "setting": "[2]", "result": "potent activity"}, {"measurement": "activity as agonists of the glucocorticoid receptor function in one or more of the above assays", "setting": "[3]", "result": "potent agonists"}]}, {"smiles": "CCN(C)c1cc2cc(CC(O)(CC(C)(C)c3cc(Cl)cc4c3OCC4)C(F)(F)F)[nH]c2cn1", "note": "(stereo not drawn) [4-(5-Chloro-2,3-dihydrobenzofuran-7-yl)-2-[5-(ethylmethylamino)-1H-pyrrolo[2,3-c]pyridin-2-ylmethyl]-1,1,1-trifluoro-4-methylpentan-2-ol]", "values": [{"measurement": "inhibit the vitamin D stimulated production of osteocalcin", "setting": "[1]", "result": "inhibit"}, {"measurement": "activity as agonists of the glucocorticoid receptor function in one or more of the above assays", "setting": "[3]", "result": "potent agonists"}]}, {"smiles": "CC(C)(CC(O)(Cc1cc2cc(N3CCOCC3)ncc2[nH]1)C(F)(F)F)c1cccc(Br)c1", "note": "(stereo not drawn) [4-(3-Bromophenyl)-1,1,1-trifluoro-4-methyl-2-(5-morpholin-4-yl-1H-pyrrolo[2,3-c]pyridin-2-ylmethyl)pentan-2-ol]", "values": [{"measurement": "inhibit the vitamin D stimulated production of osteocalcin", "setting": "[1]", "result": "inhibit"}, {"measurement": "activity as agonists of the glucocorticoid receptor function in one or more of the above assays", "setting": "[3]", "result": "potent agonists"}]}, {"smiles": "CCN(C)c1cc2cc(CC(O)(CC(C)(C)c3cc(F)ccc3C)C(F)(F)F)[nH]c2cn1", "note": "(stereo not drawn) [2-[5-(Ethylmethylamino)-1H-pyrrolo[2,3-c]pyridin-2-ylmethyl]-1,1,1-trifluoro-4-(5-fluoro-2-methylphenyl)-4-methylpentan-2-ol]", "values": [{"measurement": "inhibit the vitamin D stimulated production of osteocalcin", "setting": "[1]", "result": "inhibit"}, {"measurement": "activity as agonists of the glucocorticoid receptor function in one or more of the above assays", "setting": "[3]", "result": "potent agonists"}]}, {"smiles": "COc1ccc(-c2cncnc2)cc1C(C)(C)CC(O)(Cc1cc2cc(N3CCCCC3)ncc2[nH]1)C(F)(F)F", "note": "(stereo not drawn) [1,1,1-Trifluoro-4-(2-methoxy-5-pyrimidin-5-ylphenyl)-4-methyl-2-(5-piperidin-1-yl-1H-pyrrolo[2,3-c]pyridin-2-ylmethyl)pentan-2-ol]", "values": [{"measurement": "inhibit the vitamin D stimulated production of osteocalcin", "setting": "[1]", "result": "inhibit"}, {"measurement": "activity as agonists of the glucocorticoid receptor function in one or more of the above assays", "setting": "[3]", "result": "potent agonists"}]}, {"smiles": "COc1ccc(F)cc1C(C)(C)CC(O)(Cc1cc2cc(-c3ccccc3)ncc2[nH]1)C(F)(F)F", "note": "(stereo not drawn) [1,1,1-Trifluoro-4-(5-fluoro-2-methoxyphenyl)-4-methyl-2-(5-phenyl-1H-pyrrolo[2,3-c]pyridin-2-ylmethyl)pentan-2-ol]", "values": [{"measurement": "inhibit the vitamin D stimulated production of osteocalcin", "setting": "[1]", "result": "inhibit"}, {"measurement": "activity as agonists of the glucocorticoid receptor function in one or more of the above assays", "setting": "[3]", "result": "potent agonists"}]}, {"smiles": "CC(C)(CC(O)(Cc1cc2cc(-c3ccccc3)ncc2[nH]1)C(F)(F)F)c1cc(Cl)cc2c1OCC2", "note": "(stereo not drawn) [4-(5-Chloro-2,3-dihydrobenzofuran-7-yl)-1,1,1-trifluoro-4-methyl-2-(5-phenyl-1H-pyrrolo[2,3-c]pyridin-2-ylmethyl)pentan-2-ol]", "values": [{"measurement": "inhibit the vitamin D stimulated production of osteocalcin", "setting": "[1]", "result": "inhibit"}, {"measurement": "activity as agonists of the glucocorticoid receptor function in one or more of the above assays", "setting": "[3]", "result": "potent agonists"}]}, {"smiles": "Cc1ccc(F)cc1C(C)(C)CC(O)(Cc1cc2cnncc2[nH]1)C(F)(F)F", "note": "(stereo not drawn) [1,1,1-Trifluoro-4-(5-fluoro-2-methylphenyl)-4-methyl-2-(1H-pyrrolo[2,3-d]pyridazin-2-ylmethyl)pentan-2-ol]", "values": [{"measurement": "inhibit the vitamin D stimulated production of osteocalcin", "setting": "[1]", "result": "inhibit"}, {"measurement": "activity in the GR binding assay", "setting": "[2]", "result": "potent activity"}, {"measurement": "activity as agonists of the glucocorticoid receptor function in one or more of the above assays", "setting": "[3]", "result": "potent agonists"}]}, {"smiles": "COc1cc2cc(CC(O)(CC(C)(C)c3cc(Cl)cc4c3OCC4)C(F)(F)F)[nH]c2cn1", "note": "(stereo not drawn) [4-(5-Chloro-2,3-dihydrobenzofuran-7-yl)-1,1,1-trifluoro-2-(5-methoxy-1H-pyrrolo[2,3-c]pyridin-2-ylmethyl)-4-methylpentan-2-ol]", "values": [{"measurement": "inhibit the vitamin D stimulated production of osteocalcin", "setting": "[1]", "result": "inhibit"}, {"measurement": "activity in the GR binding assay", "setting": "[2]", "result": "potent activity"}, {"measurement": "activity as agonists of the glucocorticoid receptor function in one or more of the above assays", "setting": "[3]", "result": "potent agonists"}]}, {"smiles": "CC(C)(CC(O)(Cc1cc2cc(O)ncc2[nH]1)C(F)(F)F)c1cc(-c2ccccc2)ccc1O", "note": "(stereo not drawn) [2-[2-Hydroxy-4-(4-hydroxybiphenyl-3-yl)-4-methyl-2-trifluoromethylpentyl]-1H-pyrrolo[2,3-c]pyridin-5-ol]", "values": [{"measurement": "inhibit the vitamin D stimulated production of osteocalcin", "setting": "[1]", "result": "inhibit"}, {"measurement": "activity as agonists of the glucocorticoid receptor function in one or more of the above assays", "setting": "[3]", "result": "potent agonists"}]}, {"smiles": "CC(C)(CC(O)(Cc1cc2cc(C(N)=O)ccc2[nH]1)C(F)(F)F)c1cc(Br)cc2c1OCC2", "note": "(stereo not drawn) [2-[4-(5-Bromo-2,3-dihydrobenzofuran-7-yl)-2-hydroxy-4-methyl-2-trifluoromethylpentyl]-1H-indole-5-carboxylic acid amide]", "values": [{"measurement": "inhibit the vitamin D stimulated production of osteocalcin", "setting": "[1]", "result": "inhibit"}, {"measurement": "activity in the GR binding assay", "setting": "[2]", "result": "potent activity"}, {"measurement": "activity as agonists of the glucocorticoid receptor function in one or more of the above assays", "setting": "[3]", "result": "potent agonists"}]}, {"smiles": "Cc1nccc2[nH]c(CC(O)(CC(C)(C)c3cc(Cl)cc4c3OCC4)C(F)(F)F)cc12", "note": "(stereo not drawn) [4-(5-Chloro-2,3-dihydrobenzofuran-7-yl)-1,1,1-trifluoro-4-methyl-2-(4-methyl-1H-pyrrolo[3,2-c]pyridin-2-ylmethyl)pentan-2-ol]", "values": [{"measurement": "inhibit the vitamin D stimulated production of osteocalcin", "setting": "[1]", "result": "inhibit"}, {"measurement": "activity as agonists of the glucocorticoid receptor function in one or more of the above assays", "setting": "[3]", "result": "potent agonists"}]}, {"smiles": "Cc1cc2[nH]c(CC(O)(CC(C)(C)c3cc(Cl)cc4c3OCC4)C(F)(F)F)cc2c(C)n1", "note": "(stereo not drawn) [4-(5-Chloro-2,3-dihydrobenzofuran-7-yl)-2-(4,6-dimethyl-1H-pyrrolo[3,2-c]pyridin-2-ylmethyl)-1,1,1-trifluoro-4-methylpentan-2-ol]", "values": [{"measurement": "inhibit the vitamin D stimulated production of osteocalcin", "setting": "[1]", "result": "inhibit"}, {"measurement": "activity in the GR binding assay", "setting": "[2]", "result": "potent activity"}, {"measurement": "activity as agonists of the glucocorticoid receptor function in one or more of the above assays", "setting": "[3]", "result": "potent agonists"}]}]}
